# From ChEMBL document CHEMBL5108012, “Discovery of 2,5-diphenyl-1,3,4-thiadiazole derivatives as HDAC inhibitors with DNA binding affinity” (Eur J Med Chem, 2022)
# Calls of active or inactive are those of the source. No cut-off for these calls is given here.
# Assays:
# [1] = target: Histone deacetylase (HDAC1 and HDAC2) (Homo sapiens, UniProt Q13547+Q92769); test: Inhibition of HDAC1/HDAC2 in human HeLa cell nuclear extract using Boc-Lys(Ac)-AMC as substrate and measured by fluorometric method; type: cell-based
# [2] = target: Histone deacetylase 1 (Homo sapiens, UniProt Q13547); test: Inhibition of HDAC1 in human HeLa cell nuclear extract using Boc-Lys(Ac)-AMC or Boc-Lys(triflouroacetyl)-AMC as substrate incubated for 30 mins and measured by fluorescence assay; type: cell-free
# Sequence of Histone deacetylase 1 (Q13547 whole entry): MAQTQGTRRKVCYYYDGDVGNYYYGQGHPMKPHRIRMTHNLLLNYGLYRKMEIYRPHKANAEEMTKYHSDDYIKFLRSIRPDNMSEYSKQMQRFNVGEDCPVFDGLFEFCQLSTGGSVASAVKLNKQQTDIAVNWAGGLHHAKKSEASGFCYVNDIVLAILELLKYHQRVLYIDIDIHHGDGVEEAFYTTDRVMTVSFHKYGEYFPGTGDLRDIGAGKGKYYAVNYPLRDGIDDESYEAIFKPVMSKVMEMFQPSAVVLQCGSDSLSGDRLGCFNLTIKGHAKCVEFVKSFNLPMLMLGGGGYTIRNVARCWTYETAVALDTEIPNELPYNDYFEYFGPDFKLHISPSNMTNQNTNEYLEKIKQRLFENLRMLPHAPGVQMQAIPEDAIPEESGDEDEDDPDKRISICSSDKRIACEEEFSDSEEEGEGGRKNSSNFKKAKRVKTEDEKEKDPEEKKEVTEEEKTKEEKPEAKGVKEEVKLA
# [3] = target: T1, Protein deacetylase HDAC6 (Homo sapiens, UniProt Q9UBN7); test: Inhibition of HDAC6 in human HeLa cell nuclear extract using Boc-Lys(Ac)-AMC or Boc-Lys(triflouroacetyl)-AMC as substrate incubated for 30 mins and measured by fluorescence assay; type: cell-free
# T1 sequence (Q9UBN7 whole entry): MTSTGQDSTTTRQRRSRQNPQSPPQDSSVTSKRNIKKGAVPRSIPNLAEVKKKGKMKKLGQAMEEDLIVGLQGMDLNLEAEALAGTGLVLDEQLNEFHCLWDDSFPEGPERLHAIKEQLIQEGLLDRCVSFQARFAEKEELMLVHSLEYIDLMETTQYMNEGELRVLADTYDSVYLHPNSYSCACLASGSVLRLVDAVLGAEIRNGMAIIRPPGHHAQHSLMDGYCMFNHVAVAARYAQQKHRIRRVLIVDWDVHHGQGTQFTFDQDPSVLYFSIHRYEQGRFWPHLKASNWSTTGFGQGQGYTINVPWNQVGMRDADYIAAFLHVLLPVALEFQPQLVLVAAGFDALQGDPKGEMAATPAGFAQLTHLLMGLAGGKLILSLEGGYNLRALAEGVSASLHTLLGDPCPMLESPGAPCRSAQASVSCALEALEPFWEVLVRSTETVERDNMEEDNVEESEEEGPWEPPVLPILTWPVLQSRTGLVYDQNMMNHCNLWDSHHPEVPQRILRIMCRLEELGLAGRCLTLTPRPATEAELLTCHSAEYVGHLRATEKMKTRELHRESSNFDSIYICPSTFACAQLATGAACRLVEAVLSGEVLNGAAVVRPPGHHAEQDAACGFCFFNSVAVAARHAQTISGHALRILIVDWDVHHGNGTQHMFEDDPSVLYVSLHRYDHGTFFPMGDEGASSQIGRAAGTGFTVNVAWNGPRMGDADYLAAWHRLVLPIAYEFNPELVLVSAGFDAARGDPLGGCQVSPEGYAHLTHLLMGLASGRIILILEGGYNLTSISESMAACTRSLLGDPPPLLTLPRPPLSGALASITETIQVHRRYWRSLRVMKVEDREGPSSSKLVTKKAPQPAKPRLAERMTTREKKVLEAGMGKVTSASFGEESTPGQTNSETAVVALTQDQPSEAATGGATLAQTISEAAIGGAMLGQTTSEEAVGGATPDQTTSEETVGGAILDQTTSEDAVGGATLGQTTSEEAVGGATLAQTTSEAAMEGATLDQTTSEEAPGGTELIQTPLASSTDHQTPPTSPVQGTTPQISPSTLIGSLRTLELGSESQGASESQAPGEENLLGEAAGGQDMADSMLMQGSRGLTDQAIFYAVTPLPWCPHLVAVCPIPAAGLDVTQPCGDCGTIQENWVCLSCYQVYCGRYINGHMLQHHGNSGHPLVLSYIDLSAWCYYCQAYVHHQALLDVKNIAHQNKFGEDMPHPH
# [4] = target: T2, Histone deacetylase 8 (Homo sapiens, UniProt Q9BY41); test: Inhibition of HDAC8 in human HeLa cell nuclear extract using Boc-Lys(Ac)-AMC or Boc-Lys(triflouroacetyl)-AMC as substrate incubated for 30 mins and measured by fluorescence assay; type: cell-free
# T2 sequence (Q9BY41 whole entry): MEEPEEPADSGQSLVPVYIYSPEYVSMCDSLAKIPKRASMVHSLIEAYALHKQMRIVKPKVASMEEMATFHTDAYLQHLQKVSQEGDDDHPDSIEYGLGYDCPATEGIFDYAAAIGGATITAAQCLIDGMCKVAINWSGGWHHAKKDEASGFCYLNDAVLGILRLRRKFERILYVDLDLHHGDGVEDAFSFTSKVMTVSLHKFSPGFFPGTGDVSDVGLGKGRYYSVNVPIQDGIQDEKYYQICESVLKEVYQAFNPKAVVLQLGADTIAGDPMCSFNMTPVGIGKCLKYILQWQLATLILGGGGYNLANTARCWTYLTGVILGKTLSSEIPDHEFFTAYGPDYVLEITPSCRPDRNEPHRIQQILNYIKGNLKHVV
# [5] = system: HCT-116; test: Antiproliferative activity against human HCT-116 cells after 48 hrs by CCK-8 assay; type: functional, cell-based; conditions: HCT-116, 48 h
# [6] = system: HeLa; test: Antiproliferative activity against human HeLa cells after 48 hrs by CCK-8 assay; type: functional, cell-based
# [7] = system: HepG2; test: Antiproliferative activity against human HepG2 cells after 48 hrs by CCK-8 assay; type: functional, cell-based; conditions: HepG2, 48 h
# [8] = system: MC-38; test: Antiproliferative activity against mouse MC38 cells after 48 hrs by CCK-8 assay; type: functional, cell-based; conditions: MC-38, 48 h
# [9] = system: K562; test: Antiproliferative activity against human K562 cells after 48 hrs by CCK-8 assay; type: functional, cell-based; conditions: K562, 48 h
# [10] = system: HEL; test: Antiproliferative activity against human HEL cells after 48 hrs by CCK-8 assay; type: functional, cell-based
# [11] = system: MOLT-4; test: Antiproliferative activity against human MOLT-4 cells after 48 hrs by CCK-8 assay; type: functional, cell-based; conditions: MOLT-4, 48 h
# [12] = system: Calf thymus DNA; test: Binding affinity to calf thymus DNA at 50 uM incubated for 30 mins and measured by UV-vis absorption spectroscopy; type: nucleic-acid assay; conditions: Bos taurus
# [13] = system: Calf thymus DNA; test: Binding affinity to calf thymus DNA at 50 uM incubated for 30 mins and measured by fluorescence spectroscopy; type: nucleic-acid assay; conditions: Bos taurus
# [14] = system: HCT-116; test: Induction of apoptosis in human HCT-116 cells assessed as early apoptotic cells at 1.5 uM incubated for 48 hrs by PI and annexin V-FITC staining based flow cytometry (reference value: 3.4%); type: functional
# [15] = system: HCT-116; test: Induction of apoptosis in human HCT-116 cells assessed as late apoptotic cells at 1.5 uM incubated for 48 hrs by PI and annexin V-FITC staining based flow cytometry (reference value: 3.4%); type: functional
smiles,measurement,setting,value
COc1cc(-c2nnc(-c3ccc(OCCCCCC(=O)NO)cc3)s2)cc(OC)c1OC,IC50,[1],> 1000 nM
O=C(CCCOc1ccc(-c2nnc(-c3ccccc3)s2)cc1)NO,IC50,[1],> 1000 nM
COc1cc(-c2nnc(-c3ccc(OCCCCCCC(=O)NO)cc3)s2)cc(OC)c1OC,IC50,[1],537 nM
COc1cc(-c2nnc(-c3cccc(OCC(=O)NO)c3)s2)cc(OC)c1OC,IC50,[1],> 1000 nM
O=C(CCCCCCOc1cccc(-c2nnc(-c3ccccc3Cl)s2)c1)NO,IC50,[1],168 nM
same,IC50,[2],168 nM
same,IC50,[3],30 nM
same,IC50,[4],1520 nM
same,IC50,[5],10000 nM
same,IC50,[6],17000 nM
same,IC50,[7],21000 nM
same,IC50,[8],16000 nM
same,IC50,[9],7700 nM
same,IC50,[10],8100 nM
same,IC50,[11],2400 nM
O=C(CCCCCCCOc1ccc(-c2nnc(-c3ccccc3Cl)s2)cc1)NO,IC50,[1],> 1000 nM
O=C(CCCCCCOc1ccc(-c2nnc(-c3ccccc3)s2)cc1)NO,IC50,[1],199 nM
same,IC50,[2],82 nM
same,IC50,[3],64 nM
same,IC50,[4],> 10000 nM
same,IC50,[5],20000 nM
same,IC50,[6],> 50000 nM
same,IC50,[7],> 50000 nM
same,IC50,[8],14000 nM
same,IC50,[9],16000 nM
same,IC50,[10],> 10000 nM
same,IC50,[11],3100 nM
CN1CCN(c2ccc3[nH]c(-c4ccc5[nH]c(-c6ccc(O)cc6)nc5c4)nc3c2)CC1,Activity,[12],Active
same,Activity,[13],Active
COc1cc(-c2nnc(-c3cccc(OCCCCCCCC(=O)NO)c3)s2)cc(OC)c1OC,IC50,[1],395 nM
O=C(CCCCCOc1cccc(-c2nnc(-c3ccccc3Cl)s2)c1)NO,IC50,[1],339 nM
O=C(CCCCCOc1ccc(-c2nnc(-c3ccccc3Cl)s2)cc1)NO,IC50,[1],> 1000 nM
O=C(CCCCOc1cccc(-c2nnc(-c3ccccc3Cl)s2)c1)NO,IC50,[1],656 nM
O=C(CCCCCCCOc1ccc(-c2nnc(-c3ccccc3)s2)cc1)NO,IC50,[1],> 1000 nM
O=C(CCCCOc1ccc(-c2nnc(-c3ccccc3Cl)s2)cc1)NO,IC50,[1],> 1000 nM
O=C(CCCCCCCOc1cccc(-c2nnc(-c3ccccc3)s2)c1)NO,IC50,[1],538 nM
O=C(CCCCCCCOc1cccc(-c2nnc(-c3ccccc3Cl)s2)c1)NO,IC50,[1],461 nM
COc1cc(-c2nnc(-c3ccc(OCCCC(=O)NO)cc3)s2)cc(OC)c1OC,IC50,[1],> 1000 nM
O=C(COc1cccc(-c2nnc(-c3ccccc3Cl)s2)c1)NO,IC50,[1],> 1000 nM
O=C(COc1ccc(-c2nnc(-c3ccccc3Cl)s2)cc1)NO,IC50,[1],> 1000 nM
O=C(CCCCCCOc1cccc(-c2nnc(-c3ccccc3)s2)c1)NO,IC50,[1],57 nM
same,IC50,[2],19 nM
same,IC50,[3],185 nM
same,IC50,[4],2390 nM
same,IC50,[5],2900 nM
same,IC50,[6],4900 nM
same,IC50,[7],2200 nM
same,IC50,[8],2400 nM
same,IC50,[9],3200 nM
same,IC50,[10],2600 nM
same,IC50,[11],710 nM
COc1cc(-c2nnc(-c3ccc(OCCCCCCCC(=O)NO)cc3)s2)cc(OC)c1OC,IC50,[1],> 1000 nM
COc1cc(-c2nnc(-c3cccc(OCCCCCC(=O)NO)c3)s2)cc(O)c1OC,IC50,[1],> 1000 nM
O=C(CCCCCCOc1ccc(-c2nnc(-c3ccccc3Cl)s2)cc1)NO,IC50,[1],> 1000 nM
COc1cc(-c2nnc(-c3ccc(OCC(=O)NO)cc3)s2)cc(OC)c1OC,IC50,[1],> 1000 nM
COc1cc(-c2nnc(-c3ccc(OCCCCC(=O)NO)cc3)s2)cc(OC)c1OC,IC50,[1],> 1000 nM
O=C(CCCCCCC(=O)Nc1ccccc1)NO [VORINOSTAT],Activity,[14],5.05%
same,Activity,[15],5.05%
O=C(CCCOc1ccc(-c2nnc(-c3ccccc3Cl)s2)cc1)NO,IC50,[1],> 1000 nM
O=C(CCCOc1cccc(-c2nnc(-c3ccccc3Cl)s2)c1)NO,IC50,[1],> 1000 nM
COc1cc(-c2nnc(-c3cccc(OCCCC(=O)NO)c3)s2)cc(OC)c1OC,IC50,[1],> 1000 nM
O=C(CCCCOc1ccc(-c2nnc(-c3ccccc3)s2)cc1)NO,IC50,[1],362 nM
O=C(CCCOc1cccc(-c2nnc(-c3ccccc3)s2)c1)NO,IC50,[1],> 1000 nM
COc1cc(-c2nnc(-c3cccc(OCCCCC(=O)NO)c3)s2)cc(OC)c1OC,IC50,[1],> 1000 nM
COc1cc(-c2nnc(-c3cccc(OCCCCCCC(=O)NO)c3)s2)cc(OC)c1OC,IC50,[1],366 nM
O=C(CCCCCOc1ccc(-c2nnc(-c3ccccc3)s2)cc1)NO,IC50,[1],> 1000 nM
O=C(COc1cccc(-c2nnc(-c3ccccc3)s2)c1)NO,IC50,[1],> 1000 nM
O=C(COc1ccc(-c2nnc(-c3ccccc3)s2)cc1)NO,IC50,[1],> 1000 nM
O=C(CCCCOc1cccc(-c2nnc(-c3ccccc3)s2)c1)NO,IC50,[1],118 nM
same,IC50,[2],179 nM
same,IC50,[3],32 nM
same,IC50,[4],3110 nM
same,IC50,[5],2000 nM
same,IC50,[6],1900 nM
same,IC50,[7],11000 nM
same,IC50,[8],7100 nM
same,IC50,[9],2100 nM
same,IC50,[10],570 nM
same,IC50,[11],490 nM
